Assay results taken from patent US10570179B2, “Substituted urea depsipeptide analogs as activators of the CLPP endopeptidase” (priority 2016, dated 2020).
In brackets after ≈: the same amount, converted by molar mass. Numbered stars: 1 amine (or outer) side, 2 acyl side, 3 side chain; on linkers, the order of the positions; unused ones are H or OH. Bridge positions count the residues as written; N and C are the ends. Square brackets hold non-standard residues; d marks the D form. Peptide text beside a SMILES is read from it. * marks the point of attachment. ξ: configuration not given here. Piperazine(2S-CO,4-Me) = CN1CCN[C@H](C(=O)O)C1; Phe(3,5-Me2) = Cc1cc(C)cc(C[C@H](N)C(=O)O)c1; Phe(3-Me) = Cc1cccc(C[C@H](N)C(=O)O)c1; NH(4-Cl-2-F-phenyl) = Fc1cc(Cl)ccc1N*; Pro(4R-Me) = C[C@H]1CN[C@H](C(=O)O)C1; Hyp = O=C(O)[C@@H]1C[C@@H](O)CN1; ξNMeThr = CNC(C(=O)O)[C@@H](C)O; aThr = C[C@H](O)[C@H](N)C(=O)O; Pip = O=C(O)[C@@H]1CCCCN1; CO = O=C([*:1])[*:2]; X2 = Fc1cc(N*)ccc1Cl

Experiments:
[1] = Plasma protein binding, rapid equilibrium dialysis; type: in vitro ADME, mouse; conditions: mouse, 4 h, 10 μM, pH 7.4
Method: This assay determines plasma protein binding of a drug/compound and free drug concentration in plasma using rapid equilibrium dialysis, which allow the aqueous component of plasma containing the free drug/compound through a dialysis membrane (MWCO˜8,000).
Solutions were prepared at 10 mM in DMSO. Dulbecco's phosphate buffered saline (DPBS; pH 7.4) was obtained from Invitrogen (Carlsbad, Calif.). Single-Use RED (rapid equilibrium dialysis) device was obtained from Thermo scientific (Rockford, Ill.). Human plasma was obtained from Innovative Research INC (Novi, Michigan, Ill).
Sample preparation for plasma protein binding was modified from Waters' method. (Waters et al. (2008) J. Pharm. Sci. 97(10): 4586-95). The Teflon base plate with the RED inserts (MWCO 8 K) were allowed to use without any pre-condition the membrane inserts. Human plasma was thawed and centrifuged at 1000 rpm for 2 min to remove any particulates. Each compound was prepared at 10 μM in human plasma. This was done by adding 1 μL, of drug solution (10 mM in DMSO) to 1000 μL, of human plasma (0.1% DMSO). Spiked plasma solutions (300 μL) were placed into the sample chamber (indicated by the red ring) and 500 μL, of DPBS into the adjacent chamber. The plate was sealed and incubated at 37° C. on an orbital shaker (100 rpm) for 4 hours. After incubation, the seal was removed from the RED plate and the volume of the insert confirmed—little to no volume change occurred. Aliquots (50 μL) were removed from each side of the insert and dispensed into a 96-well deep plate. An equal volume of blank plasma or DPBS was added to the required wells to create analytically identical sample matrices (matrix matching). To each sample 200 μL, of ACN containing 4 μg/mL warfarin IS was added. All of the plates were sealed and mixed well at 600 rpm for 10 min and were centrifuged at 4000 rpm for 20 min. The supernatants (120 μL) were transferred to analytical plates for analysis by LCMS. Conditions for Waters ACQUITY-UPLC-MS-UV system were described separately. The test compound concentrations were quantified in both buffer and plasma chambers via peak areas relative to the internal standard. The percentage of the test compound bound to plasma was calculated on following equations: % Free=(Concentration buffer chamber/concentration plasma chamber)×100% and % Bound=100%-% Free.

Solubility determination = type: physicochemical; conditions: for solubility kinetic at 10 min: 22 °C, aqueous buffer, kinetic from dmso stock
Method: Test compounds were synthesized and supplied by the Department of Chemical Biology and Therapeutics at St. Jude Children's Research Hospital (Memphis, Tenn.). LC-MS chromasolv grade acetonitrile (ACN) was purchased from Fisher Scientific (Loughborough, UK). LC-MS chromasolv grade formic acid was obtained from Sigma-Aldrich (St. Louis, Mo.). Milli-Q water as an ultrapure laboratory grade water was used in aqueous mobile phase.
Chromatographic separation was performed on an Acquity UPLC BEH C18 1.7 μm, 2.1×50 mm column (Waters Corporation, Milford, Mass.) using an Acquity ultra performance liquid chromatography system. The total flow rate was 0.9 mL/min. The sample injection volume was 10 μL. The UPLC column was maintained at 60° C. and the gradient program started at 90% A (0.1% formic acid in MilliQ H2O), changed to 70% A over 0.2 min, to 95% B (0.1% formic acid in ACN) over 1.4 minutes, held for 0.35 minutes, then to 90% A over 0.05 minutes.
Mass data was acquired with an Acquity SQD Mass Spectrometer. The mass spectrometer was operated in positive-ion mode with electrospray ionization. The conditions were as follows: capillary voltage 3.5 kV, cone voltage 30 V, source temperature 150° C., desolvation temperature 350° C., desolvation gas 500 L/hr, cone gas 25 L/hr. Data were acquired using Masslynx v. 4.1 and analyzed using the Quanlynx software suite. A full scan range from m/z=100-1000 in 0.2 s was used to acquire MS data. Both UV and Single ion recording mass spectrometry were used to determine the quantification of the samples.
Stock solutions were prepared by dissolving compounds into DMSO to yield a concentration of 10 mM. Stock solutions were stored at room temperature.
Calibration standards were made by adding stock solutions to DMSO for final concentrations of compounds at concentration of 100, 25, 6.25, 1.563, 0.391 and 0.098 μM.
Solubility test samples were made by adding stock solutions to 200 μL, of DPBS for final concentrations of compounds at 100 μM in a 96-well analytical plate (300 μL, maximum volume in each well). Samples were tested in triplicates. The plate was sealed, shaken at 600 rpm for 10 minutes, and then was centrifuged at 4000 rpm for 20 min at 22° C. 100 μL, of the supernatant was transferred to a new analytical 96-well plate and 10 μL, was injected onto the LCMS system.
Two calibration curves for solubility test samples were analyzed during the quantitation process. The linear regression of test compound peak areas was weighted by 1/x^2. […] Coefficient of determination (R^2) was used to evaluate the linearity of each calibration curve.

Compound	Mouse [1] [%]	μsol (μg/mL) (Solubility determination) [µg/mL]	μsol (μM) (Solubility determination) [µM]	solubility kinetic at 10 min (Solubility determination) [µM]
Cc1cc(C)cc(C[C@H](NC(=O)Nc2ccc(Cl)cc2F)C(=O)N[C@@H]2C(=O)N3CCC[C@H]3C(=O)N3CCCC[C@H]3C(=O)N[C@@H](C)C(=O)N3C[C@H](C)C[C@H]3C(=O)O[C@H]2C)c1 [Compound 4, (S)-2-(3-(4-CHLORO-2-FLUOROPHENYL)UREIDO)-3-(3,5-DIMETHYLPHENYL)-N-((2R,6S,8AS,14AS,20S,21S,23AS)-2,6,21-TRIMETHYL-5,8,14,19,23-PENTAOXOOCTADECAHYDRO-1H,5H,14H,19H-PYRIDO[2,1-I]DIPYRROLO[2,1-C:2′,1′-L][1]OXA[4,7,10,13]TETRAAZACYCLOHEXADECIN-20-YL)PROPANAMIDE] ({NH(4-Cl-2-F-phenyl)-CO}-[Phe(3,5-Me2)][aThr]P[Pip]A[Pro(4R-Me)]; ester 2-C)	99.8 ± 0.0	<0.1	–	–
Cc1cccc(C[C@H](NC(=O)Nc2ccc(Cl)cc2F)C(=O)N[C@@H]2C(=O)N3CCC[C@H]3C(=O)N(C)C([C@@H](C)O)C(=O)N[C@@H](C)C(=O)N3C[C@H](C)C[C@H]3C(=O)O[C@H]2C)c1 (stereo partly drawn) [Compound 5] ({NH(4-Cl-2-F-phenyl)-CO}-[Phe(3-Me)][aThr]P[ξNMeThr]A[Pro(4R-Me)]; ester 2-C)	98.6 ± 0.5	–	22.5 ± 1.9	17.4 ± 0.4 (≈ 14.4 µg/mL)
Cc1cccc(C[C@H](NC(=O)Nc2ccc(Cl)cc2F)C(=O)N[C@@H]2C(=O)N3C[C@H](O)C[C@H]3C(=O)N3CCCC[C@H]3C(=O)N[C@@H](C)C(=O)N3C[C@H](C)C[C@H]3C(=O)O[C@H]2C)c1 [Compound 6, (S)-2-(3-(4-CHLORO-2-FLUOROPHENYL)UREIDO)-N-((2R,6S,8AS,14AS,16R,20S,21S,23AS)-16-HYDROXY-2,6,21-TRIMETHYL-5,8,14,19,23-PENTAOXOOCTADECAHYDRO-1H,5H,14H,19H-PYRIDO[2,1-I]DIPYRROLO[2,1-C:2′,1′-L][1]OXA[4,7,10,13]TETRAAZACYCLOHEXADECIN-20-YL)-3-(M-TOLYL)PROPANAMIDE] ({NH(4-Cl-2-F-phenyl)-CO}-[Phe(3-Me)][aThr][Hyp][Pip]A[Pro(4R-Me)]; ester 2-C)	99.5 ± 0.1	–	13.9 ± 1.4	12.6 ± 0.3 (≈ 10.6 µg/mL)
Cc1cccc(C[C@H](NC(=O)Nc2ccc(Cl)cc2F)C(=O)N[C@H]2COC(=O)[C@@H]3C[C@@H](C)CN3C(=O)[C@H](C)NC(=O)[C@@H]3CCCCN3C(=O)[C@@H]3CCCN3C2=O)c1 [Compound 8, (S)-2-(3-(4-CHLORO-2-FLUOROPHENYL)UREIDO)-N-((2R,6S,8AS,14AS,20S,23AS)-2,6-DIMETHYL-5,8,14,19,23-PENTAOXOOCTADECAHYDRO-1H,5H,14H,19H-PYRIDO[2,1-I]DIPYRROLO[2,1-C:2′,1′-L][1]OXA[4,7,10,13]TETRAAZACYCLOHEXADECIN-20-YL)-3-(M-TOLYL)PROPANAMIDE]	98.9 ± 0.4	–	8.8 ± 0.7	2.79 ± 0.5 (≈ 2.26 µg/mL)
Cc1cccc(C[C@H](NC(=O)Nc2ccc(Cl)cc2F)C(=O)N[C@H]2COC(=O)[C@@H]3C[C@@H](C)CN3C(=O)[C@H](C)NC(=O)[C@@H]3CCCCN3C(=O)[C@@H]3C[C@@H](O)CN3C2=O)c1 [Compound 10]	99.7 ± 0.0	–	26.0 ± 0.9	27.04 ± 0.25 (≈ 22.3 µg/mL)
Cc1cccc(C[C@H](NC(=O)Nc2ccc(Cl)cc2F)C(=O)N[C@@H]2C(=O)N3CCC[C@H]3C(=O)N3CCN(C)C[C@H]3C(=O)N[C@@H](C)C(=O)N3C[C@H](C)C[C@H]3C(=O)O[C@H]2C)c1 [Compound 11, (S)-2-(3-(4-CHLORO-2-FLUOROPHENYL)UREIDO)-N-((6AS,12S,13S,15AS,17R,21S,23AS)-2,13,17,21-TETRAMETHYL-6,11,15,20,23-PENTAOXOOCTADECAHYDRO-2H,6H,11H,15H-PYRAZINO[2,1-I]DIPYRROLO[2,1-C:2′,1′-L][1]OXA[4,7,10,13]TETRAAZACYCLOHEXADECIN-12-YL)-3-(M-TOLYL)PROPANAMIDE] ({NH(4-Cl-2-F-phenyl)-CO}-[Phe(3-Me)][aThr]P[Piperazine(2S-CO,4-Me)]A[Pro(4R-Me)]; ester 2-C)	98.8 ± 0.4	–	32.2 ± 1.4	43.2 ± 3.14 (≈ 36.3 µg/mL)
Cc1cccc(C[C@H](NC(=O)Nc2ccc(Cl)cc2F)C(=O)N[C@H]2COC(=O)[C@@H]3C[C@@H](C)CN3C(=O)[C@H](C)NC(=O)[C@@H]3CCCCN3C(=O)[C@@H]3C[C@H](N)CN3C2=O)c1 [Compound 12, (S)—N-((2R,6S,8AS,14AS,16S,20S,23AS)-16-AMINO-2,6-DIMETHYL-5,8,14,19,23-PENTAOXOOCTADECAHYDRO-1H,5H,14H,19H-PYRIDO[2,1-I]DIPYRROLO[2,1-C:2′,1′-L][1]OXA[4,7,10,13]TETRAAZACYCLOHEXADECIN-20-YL)-2-(3-(4-CHLORO-2-FLUOROPHENYL)UREIDO)-3-(M-TOLYL)PROPANAMIDE]	99.6 ± 0.0	–	24.7 ± 3.7	37.5 ± 13 (≈ 30.9 µg/mL)
Cc1cccc(C[C@H](NC(=O)Nc2ccc(Cl)cc2F)C(=O)N[C@H]2COC(=O)[C@@H]3C[C@@H](C)CN3C(=O)[C@H](C)NC(=O)[C@@H]3CN(C)CCN3C(=O)[C@@H]3CCCN3C2=O)c1 [Compound 13, (S)-2-(3-(4-CHLORO-2-FLUOROPHENYL)UREIDO)-3-(M-TOLYL)-N-((6AS,12S,15AS,17R,21S,23AS)-2,17,21-TRIMETHYL-6,11,15,20,23-PENTAOXOOCTADECAHYDRO-2H,6H,11H,15H-PYRAZINO[2,1-I]DIPYRROLO[2,1-C:2′,1′-L][1]OXA[4,7,10,13]TETRAAZACYCLOHEXADECIN-12-YL)PROPANAMIDE] ({NH(4-Cl-2-F-phenyl)-CO}-[Phe(3-Me)]SP[Piperazine(2S-CO,4-Me)]A[Pro(4R-Me)]; ester 2-C)	97.5 ± 0.3	–	38.3 ± 2.2	40.1 ± 4.6 (≈ 33.1 µg/mL)
Cc1cccc(C[C@H](NC(=O)Nc2ccc(Cl)c(F)c2)C(=O)N[C@H]2COC(=O)[C@@H]3C[C@@H](C)CN3C(=O)[C@H](C)NC(=O)[C@@H]3CN(C)CCN3C(=O)[C@@H]3CCCN3C2=O)c1 [Compound 14, (S)-2-(3-(4-CHLORO-3-FLUOROPHENYL)UREIDO)-3-(M-TOLYL)-N-((6AS,12S,15AS,17R,21S,23AS)-2,17,21-TRIMETHYL-6,11,15,20,23-PENTAOXOOCTADECAHYDRO-2H,6H,11H,15H-PYRAZINO[2,1-I]DIPYRROLO[2,1-C:2′,1′-L][1]OXA[4,7,10,13]TETRAAZACYCLOHEXADECIN-12-YL)PROPANAMIDE] ({X2-CO}-[Phe(3-Me)]SP[Piperazine(2S-CO,4-Me)]A[Pro(4R-Me)]; ester 2-C)	98.9 ± 0.1	–	43.6 ± 1.8	39.3 ± 1.9 (≈ 32.4 µg/mL)
